Assay results: patent US20260109693A1, “BUTENOLIDE COMPOUNDS CONTAINING THIAZOLIDINONE STRUCTURE AS WELL AS PREPARATION METHOD THEREFOR AND USE THEREOF” (priority 2023, published 2026)
In brackets after ≈: the same amount, converted by molar mass.

Assays:
[1] = tested on: corn rust disease; experiment: In vivo protective activity, live pot cultivation method; settings: 400 mg/L, sprayed 24 hours before inoculation, potted plants
Protocol: (§1) The determination method was as follows: the live pot cultivation determination method was used, that is, the compound sample to be tested was dissolved in a small amount of solvent (the type of solvent was such as acetone, methanol, and DMF, and was selected according to its dissolving ability for the sample, with a volume ratio of solvent amount to spray amount equal to or less than 0.05), diluted with water containing 0.1% Tween 80, and prepared into a test solution with a required concentration. With a crop sprayer, the test solution was sprayed on a pathogen host plant (the host plant was a standard potted seedling cultivated in a greenhouse), and inoculation with the pathogen was performed after 24 hours. Based on the characteristics of the pathogen, plants that require temperature control and moisturizing cultivation were inoculated and placed in an artificial climate chamber for cultivation, and transferred to a greenhouse for cultivation after the pathogen infection was completed. […] The disease prevention efficacy of the compound was evaluated after the disease had fully developed (usually one week).
(§2) At a concentration of 400 mg/L, the in vivo protective activity determination results of some compounds are as follows: […]

[2] = tested on: Pathogenic fungi of rice sheath blight; experiment: In vitro fungicidal activity, mycelial growth rate method; format: cell-based; settings: 50 mg/L, PDA plate
[3] = tested on: Pathogenic fungi of pepper phytophthora disease; experiment: as above; format: cell-based; settings: 50 mg/L, PDA plate; for inhibition at 50 µg/mL: Phytophthora
[4] = tested on: Pathogenic fungi of wheat scab; experiment: whole plant or invertebrate; format: cell-based; settings: for inhibition rate, Pathogenic fungi of wheat scab: 50 mg/L, PDA plate, mycelial growth; for inhibition at 50 µg/mL: read-out: inhibition rate, Pathogenic fungi of wheat scab
[5] = tested on: Pathogenic fungi of rice bakanae disease; experiment: In vitro fungicidal activity, mycelial growth rate method; format: cell-based; settings: 50 mg/L, PDA plate
[6] = tested on: Pathogenic fungi of rape sclerotinia; experiment: as above; format: cell-based; settings: 50 mg/L, PDA plate; for inhibition at 50 µg/mL: Sclerotinia
[7] = tested on: Pathogenic fungi of tomato gray mold; experiment: as above; format: cell-based; settings: 50 mg/L, PDA plate
[8] = tested on: Wheat scab pathogenic fungi; format: cell-based
[9] = tested on: Rice bakanae pathogenic fungi; experiment: Precise toxicity testing, five concentration gradients of toxic PDA plates; format: cell-based
[10] = tested on: wheat powdery mildew; experiment: In vivo protective activity, live pot cultivation method; settings: 400 mg/L, sprayed 24 hours before inoculation, potted plants
Protocol: as §1, §2

[11] = tested on: Rape sclerotinia pathogenic fungi; experiment: Precise toxicity testing, five concentration gradients of toxic PDA plates; format: cell-based
[12] = tested on: cucumber downy mildew; experiment: In vivo protective activity, live pot cultivation method; settings: 400 mg/L, sprayed 24 hours before inoculation, potted plants
Protocol: as §1, §2

CSc1ccc(C2=C(C(C)=C3SC(Nc4ccccc4-c4ccc(Cl)cc4)=NC3=O)C(=O)OC23CCCCC3)cc1 [Compound I-10-17]
efficacy against corn rust disease [1]: 89%

CCOC(=O)C(C#N)=C(N)c1ccccc1 [Phenamacril]
inhibition rate, Pathogenic fungi of rice sheath blight [2]: 11.5 ± 1.4%
inhibition rate, Pathogenic fungi of pepper phytophthora disease [3]: 8.1 ± 2.1%
inhibition rate, Pathogenic fungi of wheat scab [4]: 100.0 ± 0.0%
inhibition rate, Pathogenic fungi of rice bakanae disease [5]: 100.0 ± 0.0%
inhibition rate, Pathogenic fungi of rape sclerotinia [6]: 23.0 ± 1.3%
inhibition rate, Pathogenic fungi of tomato gray mold [7]: 13.1 ± 0.3%
EC50 [8]: 0.078 µg/mL (≈ 0.361 µM)
EC90 [8]: 5.60 µg/mL (≈ 25.9 µM)
EC50 [9]: 0.071 µg/mL (≈ 0.328 µM)
EC90 [9]: 0.54 µg/mL (≈ 2.5 µM)

5-(4-phenyl-2-oxo-1-oxaspiro[4,5]-dec-3-en-3-ethylidene)-2-thio-4-thiazolidinone [Compound 3-4]
inhibition rate, Pathogenic fungi of rice sheath blight [2]: 31.9 ± 5.6%
inhibition rate, Pathogenic fungi of pepper phytophthora disease [3]: 44.8 ± 0.3%
inhibition rate, Pathogenic fungi of wheat scab [4]: 27.7 ± 2.9%
inhibition rate, Pathogenic fungi of rice bakanae disease [5]: 15.8 ± 2.4%
inhibition rate, Pathogenic fungi of rape sclerotinia [6]: 68.3 ± 4.2%
inhibition rate, Pathogenic fungi of tomato gray mold [7]: 33.6 ± 1.7%

CC(=C1SC(NCC(C)C)=NC1=O)C1=C(c2cccc(Cl)c2)C2(CCCCC2)OC1=O [Compound I-14-6]
efficacy against wheat powdery mildew [10]: 85%

CCCCNC1=NC(=O)C(=C(C)C2=C(c3ccccc3)C(C)(C)OC2=O)S1 [Compound I-3-5]
efficacy against corn rust disease [1]: 86%

5-(4-methyl-2-oxo-1-oxaspiro[4,5]-dec-3-en-3-ethylidene)-2-thio-4-thiazolidinone [Compound 3-1]
inhibition rate, Pathogenic fungi of rice sheath blight [2]: 45.2 ± 2.1%
inhibition rate, Pathogenic fungi of pepper phytophthora disease [3]: 59.7 ± 0.4%
inhibition rate, Pathogenic fungi of wheat scab [4]: 100.0 ± 0.0%
inhibition rate, Pathogenic fungi of rice bakanae disease [5]: 100.0 ± 0.0%
inhibition rate, Pathogenic fungi of rape sclerotinia [6]: 82.4 ± 1.7%
inhibition rate, Pathogenic fungi of tomato gray mold [7]: 62.4 ± 2.5%
EC50 [8]: 0.079 µg/mL
EC90 [8]: 4.97 µg/mL
EC50 [9]: 0.72 µg/mL
EC90 [9]: 5.04 µg/mL
EC50 ([11]; Rape sclerotinia): 2.02 µg/mL
EC90 ([11]; Rape sclerotinia): 9.81 µg/mL

CCCCNC1=NC(=O)C(=C(C)C2=C(c3ccc(Br)cc3)C3(CCCCC3)OC2=O)S1 [Compound I-7-5]
efficacy against cucumber downy mildew [12]: 95%

CC(=C1SC(Nc2ccccc2)=NC1=O)C1=C(c2cccc(C(F)(F)F)c2)C2(CCCCC2)OC1=O [Compound I-16-7]
efficacy against wheat powdery mildew [10]: 81%

CC(=C1SC(Nc2ccc(F)cc2-c2ccc(Cl)c(Cl)c2)=NC1=O)C1=C(c2ccc(C(F)(F)F)cc2)C2(CCCCC2)OC1=O [Compound I-12-15]
efficacy against cucumber downy mildew [12]: 93%

CC(=C1SC(Nc2ccc(C(F)(F)F)cc2)=NC1=O)C1=C(c2ccc(Cl)cc2)C2(CCCCC2)OC1=O [Compound I-6-9]
efficacy against wheat powdery mildew [10]: 88%

Cc1nc(C(F)(F)F)c(C(=O)Nc2c(Br)cc(OC(F)(F)F)cc2Br)s1 [Thifluzamide]
inhibition at 50 µg/mL [2]: 90.1 ± 4.5%
inhibition at 50 µg/mL [3]: 15.1 ± 2.8%
inhibition at 50 µg/mL [4]: 13.4 ± 6.3%
inhibition at 50 µg/mL [5]: 5.8 ± 1.4%
inhibition at 50 µg/mL [6]: 83 ± 1.2%
inhibition at 50 µg/mL [7]: 28.2 ± 1.2%
EC50 ([11]; Sclerotinia): 1.53 µg/mL (≈ 2.9 µM)
EC90 ([11]; Sclerotinia): 16.3 µg/mL (≈ 30.8 µM)

COC(=O)Nc1nc2ccccc2[nH]1 [Carbendazim]
inhibition at 50 µg/mL [2]: 100%
inhibition at 50 µg/mL [3]: 4.6 ± 1.2%
inhibition at 50 µg/mL [4]: 100%
inhibition at 50 µg/mL [5]: 87.5 ± 3.1%
inhibition at 50 µg/mL [6]: 72.5 ± 2.1%
inhibition at 50 µg/mL [7]: 5.4 ± 2.4%
